Assay [1] concerns L.infantum promastigotes. In words: Alteration of production and excretion of metabolites (1H NMR). The assay is classed as cell-based, Leishmania infantum. Particulars: compound at IC25, 72 h, versus control. As to the method:
(§1) Methodology: Promastigotes from the three species studied were used for this study. They were left to grow in a culture flask and subsequently transferred to a 25 ml capacity conical bottom flask (steriling) so that there were 5×10^4 parasites/ml in each one. The amount of compound needed to reach IC25 of each product was added and completed with fresh culture medium to reach a final volume of 3 ml and incubated at 28° C. for 72 h. After that time, the flasks were centrifuged at 400 g for 10 minutes, and 2 ml of supernatant was transferred to Eppendorf® tubes. Next, they were analysed using proton nuclear resonance and the spectra were analysed with the Mestre Nova® software to obtain the metabolite production and excretion graphs. From these graphs, it can be inferred which enzyme has seen its activity altered by action of the compounds, depending on the increase or decrease of the metabolite produced by it.
(§2) Both the decrease and increase in the metabolites analysed can be positive effects, indicating a malfunctioning of the metabolic pathway.

The test system of assay [2] is Leishmania donovani. In words: Mitochondrial membrane potential by rhodamine staining and flow cytometry. The assay is classed as cell-based. Particulars: L.donovani, compound at IC25, 72 h. As to the method:
Methodology: Similar to the assay of Example 5, an amount of 5×10^4 parasites/ml of Leishmania donovani was re-treated with the IC25 of compounds 2 and 4, this time in a final volume in the 5 ml steriling conical bottom flasks. Again, after 72 h of incubation under the same conditions as described in Example 5, the flasks were centrifuged at 400 g for 10 minutes and the pellet was washed by resuspending with PBS three times. The pellet was resuspended with 0.5 mL of PBS with 10 µg/mL rhodamine after the last wash. A cytometry analysis was performed after 20 minutes of action of the rhodamine.

Assay [3] concerns the target T1, CuZnSOD of human erythrocytes (Homo sapiens, UniProt P00441).
T1 construct: the Cu/Zn-superoxide dismutase of human red blood cells from Boehringer Mannheim was used; purchased Boehringer Mannheim; host or cells: human red blood cells (erythrocytes)
Nature of the assay: In vitro inhibition of CuZnSOD (NBT reduction). The assay is classed as biochemical. An excerpt:
To conduct this assay, the Cu/Zn-superoxide dismutase of human red blood cells from Boehringer Mannheim was used, whilst the coenzymes and substrates were obtained from Sigma-Aldrich.
Inhibition caused by the novel compounds on FeSOD/ Cu-Zn SOD activity was quantified on the spectrophotometer at 560 nm according to the technique described by [W F. Beyer. I. Fridovich. Anal Biochem. 1987. 161: 559-66] based on the determination of the reduction of NBT (nitro blue tetrazolium) by superoxide ions and which the group of the present inventors has developed for the assay in trypanosomatides, being a routine technique in the laboratory of said group [F. Luque. et. al. Comp. Biochem. Physiol. C Toxicol. Pharmacol. 2000. […]
Briefly, the cultured parasites as described in Example 1 underwent centrifugation, the pellet was resuspended (0.5 - 0.6 g/ml) in 3 ml of STE buffer (0.25 M. Tris-HCI 25 mM sucrose. 1 M EDTA. pH 7.8) and underwent 3 cycles of sonication from 30 s at 60 V. Then, it was centrifuged at 1500 g for 10 min at 4° C. and the pellet was washed 3 times with ice-cooled STE buffer. […] Protein concentrations were determined by means of the Bradford method (Sigma-Aldrich) using bovine serum albumin as standard. […] A first measurement of the absorbance at 560 nm was made on a spectrophotometer and, after 10 minutes under light and under stirring conditions, the absorbance was re-determined. […]

Assay [4] deals with L.braziliensis promastigotes. Nature of the assay: Alteration of production and excretion of metabolites (1H NMR). The note with it: compound at IC25, 72 h; for Succinate production: versus control. It counts as cell-based, Leishmania braziliensis. As to the method: as §1, §2
In assay [5] the test system is L.donovani promastigotes. Described as above. The note with it: compound at IC25, 72 h. The assay is classed as cell-based, Leishmania donovani. As for the experimental part: as §1, §2

Molecules are shown by their SMILES.

T1 sequence (P00441 whole entry): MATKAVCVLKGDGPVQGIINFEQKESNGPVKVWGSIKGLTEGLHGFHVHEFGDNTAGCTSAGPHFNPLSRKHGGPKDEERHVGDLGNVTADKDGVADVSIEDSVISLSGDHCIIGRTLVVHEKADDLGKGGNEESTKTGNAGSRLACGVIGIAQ

On to `CN(C)CCNCc1ccccn1` [Compound 4, 1-(2-pyridyl)-5-methyl-2,5-diazahexane], for which the Succinate production entry in assay [1] and in assay [4] was “increase in succinate production” each time. Besides, the “Effect on mitochondrial membrane potential” value in assay [2] is “only a slight depolarisation”. Moreover, the “Concentration for 50% inhibition (IC50) of CuZnSOD of human erythrocytes” value in assay [3] is “high IC50 value”. The “Production and excretion of metabolites (metabolism, other metabolites analysed)” value in assay [4] is given as “decrease of the remaining metabolites analysed”.
On to `CNCCNCc1cccnc1` [Compound 2, 1-{3-pyridyl)-2,5-diazahexane], for which the “Effect on mitochondrial membrane potential” value in assay [2] is listed as “only a slight depolarisation”. Moreover, the “Production and excretion of metabolites (metabolism, other metabolites analysed)” value in assay [4] is reported as “practically does not alter the other metabolites analysed”; in assay [5] it was “all the metabolites analysed increase”. Also, the Succinate production entry in assay [4] was “a certain increase of succinate”; in assay [5] (versus control), “increase in succinate production”.

The values above are taken from patent US20230346769A1, “USE OF SIMPLE ACYCLIC POLYAMINES FOR THE TREATMENT OF DISEASES CAUSED BY PARASITES OF THE GENUS LEISHMANIA” (Universidad De Granada, priority 2020, published 2023).
